In USRE47689E1, “Compounds for treating spinal muscular atrophy” (PTC Therapeutics, Inc., priority 2011, dated 2019):
Like-named read-outs stand apart in the source and are kept apart here.

How the values were obtained:
[1] = test system: SMN2 minigene (full length SMN2 minigene mRNA containing SMN2 exon 7); assay: SMN2 minigene mRNA splicing RT-qPCR assay in cultured cells; type: cell-based, human; details: Homo sapiens, HEK293-H, read-out: EC1.5x for production of full length SMN2 mRNA
How it was run: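 Read-out: full-length (exon 7-included) SMN2 minigene mRNA by multiplex RT-qPCR with GAPDH, efficiency-corrected (1+E)^−Ct, GAPDH-normalized and divided by vehicle. Stably transfected HEK293H cells, 24 h compound exposure, duplicates per concentration. Value is EC1.5x, reported as star ranges.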

[2] = test system: Smn protein; assay: Smn protein assay in cultured cells (SMN HTRF); type: cell-based, human; details: 48 hours; for maximum fold (Fold) increase of Smn protein: SMA patient fibroblast cells, 7-point concentration data, fold increase relative to vehicle control (SMN HTRF); for EC1.5x (concentration giving 1.5-fold Smn protein increase): SMA Type 1 patient fibroblast cells (GM03813), 7-point concentration curve, SMN HTRF, concentration producing 1.5 times Smn protein vs DMSO vehicle control, read-out: EC1.5x for Smn protein expression
How it was run: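 Lysates in RIPA with protease inhibitors are incubated overnight at room temperature with HTRF anti-SMN antibodies. EC1.5x is derived from fold increase in ΔF over vehicle.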

[3] = HEK293H cells stably transfected with SMN2-A minigene, 24 hours, 7-point concentration curve, 1.5-fold relative to vehicle-treated cells

SMILES	EC (1.5-fold) [1, 3]	maximum fold (Fold) increase of Smn protein [2]	melting point	EC1.5x (concentration giving 1.5-fold Smn protein increase) [2]	EC (1.5-fold) ([1]; 24 h)
Cc1ccn2cc(-c3cc4ccc(N5CCCNCC5)cc4oc3=O)nc2n1 [Compound 230, 7-(1,4-diazepan-1-yl)-3-(7-methylimidazo[1,2-a]pyrimidin-2-yl)-2H-chromen-2-one]	0.3 to 1 µM	*** (fold increase between >1.35 and ≤1.5)	286 to 288 °C	–	–
Cc1ccc2oc(-c3cc4ccc(N5C[C@@H](C)N[C@@H](C)C5)cc4oc3=O)cc2n1 [Compound 720, 7-[(3R,5S)-3,5-dimethylpiperazin-1-yl]-3-(5-methylfuro[3,2-b]pyridin-2-yl)-2H-chromen-2-one]	0.3 to 1 µM	** (fold increase between >1.2 and ≤1.35)	179 to 183 °C	–	–
C[C@@H]1CN(c2ccc3cc(-c4cn5cccc(C(F)(F)F)c5n4)c(=O)oc3c2)C[C@H](C)N1 [Compound 211, 7-[(3R,5S)-3,5-dimethylpiperazin-1-yl]-3-[8-(trifluoromethyl)imidazo[1,2-a]pyridin-2-yl]-2H-chromen-2-one]	0.3 to 1 µM	* (maximum fold increase of ≤1.2)	295 to 298 °C	–	–
COc1c(F)cc(F)cc1-c1cc2ccc(N3CCN[C@@H](C)C3)cc2oc1=O [Compound 539, 3-(3,5-difluoro-2-methoxyphenyl)-7-[(3S)-3-methylpiperazin-1-yl]-2H-chromen-2-one]	3 to 30 µM	* (maximum fold increase of ≤1.2)	156 to 158 °C	–	–
Cc1cn2cc(-c3cc4ccc(N5CCN6CCC[C@@H]6C5)cc4oc3=O)cc2c(C)n1 [Compound 669, 3-(1,3-dimethylpyrrolo[1,2-a]pyrazin-7-yl)-7-[(8aR)-hexahydropyrrolo[1,2-a]pyrazin-2(1H)-yl]-2H-chromen-2-one]	< 0.1 µM	***** (fold increase >1.65)	170 to 173 °C	< 300 nM	–
Cc1cn2cc(-c3cc4ccc(C5CCN(C6COC6)CC5)cc4oc3=O)nc2c(C)n1 [Compound 855, 3-(6,8-dimethylimidazo[1,2-a]pyrazin-2-yl)-7-[1-(oxetan-3-yl)piperidin-4-yl]-2H-chromen-2-one]	< 0.1 µM	***** (fold increase >1.65)	217 to 223 °C	< 300 nM	–
COc1cccc(-c2cc3ccc(N4CCN(C)CC4)cc3oc2=O)n1 [Compound 257, 3-(6-methoxypyridin-2-yl)-7-(4-methylpiperazin-1-yl)-2H-chromen-2-one]	1 to 3 µM	* (maximum fold increase of ≤1.2)	162 to 164 °C	–	–
Cc1nn2cc(-c3cc4ccc(N5CCN[C@@H](C)C5)cc4oc3=O)nc2s1 [Compound 482, 3-(2-methylimidazo[2,1-b][1,3,4]thiadiazol-6-yl)-7-[(3S)-3-methylpiperazin-1-yl]-2H-chromen-2-one]	< 0.1 µM	**** (fold increase between >1.5 and ≤1.65)	205 to 209 °C	< 300 nM	–
O=c1oc2cc(N3CCCNCC3)cc(F)c2cc1-c1nc2ccccc2[nH]1 [Compound 374, 3-(1H-benzimidazol-2-yl)-7-(1,4-diazepan-1-yl)-5-fluoro-2H-chromen-2-one]	1 to 3 µM	* (maximum fold increase of ≤1.2)	236 to 242 °C	–	–
Cc1cn2cc(-c3cc4ccc(N[C@@H]5C[C@H]6CCC[C@@H](C5)N6C)cc4oc3=O)nc2c(C)n1 [Compound 702, 3-(6,8-dimethylimidazo[1,2-a]pyrazin-2-yl)-7-{[(3-exo)-9-methyl-9-azabicyclo[3.3.1]non-3-yl]amino}-2H-chromen-2-one]	–	* (maximum fold increase of ≤1.2)	279 to 287 °C	–	1 to 3 µM
